# Columns and labels:
# [1] = test system: Bacillus subtilis spores; assay: Microbicidal activity of commonly used antiseptics against Bacillus subtilis spores; format: cell-based; details: inoculum 1865000 CFU
# Method: (§1) The performance of commonly used antiseptics was tested against Bacillus subtilis and Staphylococcus aureus, following the general procedure of Example 1, to assess the improvement provided by the binary system over these compounds.
# After 60 minutes of exposure to the organisms, the individual antiseptics, indicated in Table 15 and Table 16, were neutralized using the corresponding neutralizing solutions prepared as listed below in Materials. Chlorhexidine and IPA were neutralized with 500 microliters of a solution containing 3% Saponin, 3% Tween-80, 0.3% lecithin, and 0.1% histidine. Povidone Iodine was neutralized with 500 microliters of thiosulfate solution (2.4%).
# [2] = test system: Staphylococcus aureus; assay: Microbicidal activity of commonly used antiseptics against Staphylococcus aureus; format: cell-based; details: inoculum 1475000 CFU
# Method: as §1
# […] Chlorhexidine and IPA were neutralized with 500 microliters of a solution containing 3% Saponin, 3% Tween-80, 0.3% lecithin, and 0.1% histidine. Povidone Iodine was neutralized with 500 microliters of thiosulfate solution (2.4%).
# [3] = two percent, compared to 70% isopropyl alcohol and 10% povidone-iodine; cited from earlier work
structure (smiles),measurement,setting,value
"[H]/N=C(\N/C(=N/[H])NCCCCCCNC(=N)NC(=N)Nc1ccc(Cl)cc1)Nc1ccc(Cl)cc1 [Chlorhexidine, Chlorhexidine Gluconate]",Log 10 (CFU + 1) Survivors,[1]; Chlorhexidine 0.020% 60 min,5.8
same,Log Reduction,[1]; Chlorhexidine 0.020% 60 min,0.4
same,Total Viability (CFU),[1]; Chlorhexidine 0.020% 60 min,672000 CFU
same,Log 10 (CFU + 1) Survivors,[1]; Chlorhexidine 0.200% 60 min,4.3
same,Log Reduction,[1]; Chlorhexidine 0.200% 60 min,2.0
same,Total Viability (CFU),[1]; Chlorhexidine 0.200% 60 min,20020 CFU
same,Log 10 (CFU + 1) Survivors,[1]; Chlorhexidine 2% 60 min,5.0
same,Log Reduction,[1]; Chlorhexidine 2% 60 min,1.3
same,Total Viability (CFU),[1]; Chlorhexidine 2% 60 min,102200 CFU
same,Log 10 (CFU + 1) Survivors,[1]; Chlorhexidine 20% 60 min,5.5
same,Log Reduction,[1]; Chlorhexidine 20% 60 min,0.7
same,Total Viability (CFU),[1]; Chlorhexidine 20% 60 min,350000 CFU
same,Log 10 (CFU + 1) Survivors,[2]; Chlorhexidine 0.020% 15 min,0.0
same,Log Reduction,[2]; Chlorhexidine 0.020% 15 min,6.2
same,Total Viability (CFU),[2]; Chlorhexidine 0.020% 15 min,0 CFU
same,Log 10 (CFU + 1) Survivors,[2]; Chlorhexidine 0.200% 15 min,0.0
same,Log Reduction,[2]; Chlorhexidine 0.200% 15 min,6.2
same,Total Viability (CFU),[2]; Chlorhexidine 0.200% 15 min,0 CFU
same,Log 10 (CFU + 1) Survivors,[2]; Chlorhexidine 2% 15 min,0.0
same,Log Reduction,[2]; Chlorhexidine 2% 15 min,6.2
same,Total Viability (CFU),[2]; Chlorhexidine 2% 15 min,0 CFU
same,Log 10 (CFU + 1) Survivors,[2]; Chlorhexidine 20% 15 min,0.0
same,Log Reduction,[2]; Chlorhexidine 20% 15 min,6.2
same,Total Viability (CFU),[2]; Chlorhexidine 20% 15 min,0 CFU
same,prevention of catheter-related infections,[3],superior

# Reference: US20070264355A1, “BINARY COMPOSITIONS AND METHODS FOR STERILIZATION” (Binary, LLC, priority 2005, published 2007)
